From PubChem BioAssay AID330 (DTP/NCI, 2004)
Where “and” joins values, the source holds several entries; their conditions need not be identical. Equal values may be shown once. Inconclusive results and toxic doses are left out. Square brackets hold non-standard residues; d marks the D form. Peptide text beside a SMILES is read from it. Tyr(3-NO2) = N[CH](Cc1ccc(O)c([N+](=O)[O-])c1)C(=O)O

System: P388 leukemia ip, CD2F1 mice, survival T/C
Assay: NCI In Vivo Anticancer Drug Screen. Data for tumor model P388 Leukemia (intraperitoneal) in CD2F1 (CDF1) mice
Settings: endpoint: median survival time, higher = longer survival
In short: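 Mice carrying the transplanted tumor received test compound or vehicle. Survival was recorded in each group, and the value is the treated-group measurement divided by that of the vehicle-treated control group.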

[1] = dose: 50.0 mg/kg/injection, schedule: Q01DX005 (ip), vehicle: Klucel (hydroxypropylcellulose) (HPC)
[2] = dose: 100.0 mg/kg/injection, schedule: Q01DX005 (ip), vehicle: Klucel (hydroxypropylcellulose) (HPC)
[3] = dose: 200.0 mg/kg/injection, schedule: Q01DX005 (ip), vehicle: Klucel (hydroxypropylcellulose) (HPC)
[4] = dose: 50.0 mg/kg/injection, schedule: Q01DX009 (ip), vehicle: Klucel (hydroxypropylcellulose) (HPC)
[5] = dose: 100.0 mg/kg/injection, schedule: Q01DX009 (ip), vehicle: Klucel (hydroxypropylcellulose) (HPC)
[6] = dose: 200.0 mg/kg/injection, schedule: Q01DX009 (ip), vehicle: Klucel (hydroxypropylcellulose) (HPC)
[7] = dose: 60.0 mg/kg/injection, schedule: Q01DX005 (ip), vehicle: saline with Tween-80
[8] = dose: 120.0 mg/kg/injection, schedule: Q01DX005 (ip), vehicle: saline with Tween-80
[9] = dose: 50.0 mg/kg/injection, schedule: Q01DX009 (ip), vehicle: saline
[10] = dose: 100.0 mg/kg/injection, schedule: Q01DX009 (ip), vehicle: saline
[11] = dose: 200.0 mg/kg/injection, schedule: Q01DX009 (ip), vehicle: saline
[12] = dose: 25.0 mg/kg/injection, schedule: Q01DX009 (ip), vehicle: saline with Tween-80
[13] = dose: 50.0 mg/kg/injection, schedule: Q01DX009 (ip), vehicle: saline with Tween-80

For `OCc1c(CO)c(-c2ccc(Cl)cc2)n2c1CCC2`, the T/C (dose: 12.5 mg/kg/injection, schedule: Q01DX005 (ip), vehicle: distilled water + Tween-80) was 120 % of control, the T/C (dose: 25.0 mg/kg/injection, schedule: Q01DX005 (ip), vehicle: distilled water + Tween-80) was 111 % of control and 120 % of control and the T/C (dose: 50.0 mg/kg/injection, schedule: Q01DX005 (ip), vehicle: distilled water + Tween-80) was 112 % of control. The T/C (dose: 100.0 mg/kg/injection, schedule: Q01DX005 (ip), vehicle: distilled water + Tween-80) was 156 % of control, the T/C (dose: 200.0 mg/kg/injection, schedule: Q01DX005 (ip), vehicle: distilled water + Tween-80) was 186 % of control and the T/C (dose: 400.0 mg/kg/injection, schedule: Q01DX005 (ip), vehicle: distilled water + Tween-80) was 157 % of control.
With `NC(=O)C(Cc1ccc(O)c([N+](=O)[O-])c1)NC(=O)C(N)Cc1ccccc1` (stereo unspecified) (H-Phe-[Tyr(3-NO2)]-NH2; configuration not given here) the T/C [1] was 103 % of control, the T/C [2] was 96 % of control and the T/C [3] was 96 % of control.
With `O=C1NC(=O)C(c2ccccc2)(c2ccccc2)N1S(=O)(=O)c1ccccc1` the T/C [4] was 100 % of control, the T/C [5] was 108 % of control and the T/C [6] was 106 % of control.
With `COc1cc(N=C=S)ccc1NC(=O)c1cc(Br)cc(Br)c1O` the T/C (dose: 100.0 mg/kg/injection, schedule: Q01DX001 (ip), vehicle: Klucel (hydroxypropylcellulose) (HPC)) was 106 % of control, the T/C (dose: 200.0 mg/kg/injection, schedule: Q01DX001 (ip), vehicle: Klucel (hydroxypropylcellulose) (HPC)) was 101 % of control and the T/C (dose: 400.0 mg/kg/injection, schedule: Q01DX001 (ip), vehicle: Klucel (hydroxypropylcellulose) (HPC)) was 106 % of control.
For `O=C(Nc1c(Cl)cccc1Cl)Oc1ccc(Cl)cc1`, the T/C [7] was 122 % of control and the T/C [8] was 114 % of control.
`NC(=S)NNC(=O)CCC(=O)Nc1ccccc1Cl` was tested, and the T/C [7] was 103 % of control, the T/C [8] was 102 % of control and the T/C (dose: 240.0 mg/kg/injection, schedule: Q01DX005 (ip), vehicle: saline with Tween-80) was 99 % of control.
In the case of `COc1ccc(-c2c(N)cnc(C(=O)O)c2C)c(OCc2ccccc2)c1OC`, the T/C (dose: 12.5 mg/kg/injection, schedule: Q01DX009 (ip), vehicle: other) is reported as 108 % of control, the T/C (dose: 25.0 mg/kg/injection, schedule: Q01DX009 (ip), vehicle: other) is reported as 105 % of control and the T/C (dose: 50.0 mg/kg/injection, schedule: Q01DX009 (ip), vehicle: other) is reported as 102 % of control. The T/C (dose: 100.0 mg/kg/injection, schedule: Q01DX009 (ip), vehicle: other) was 97 % of control and the T/C (dose: 200.0 mg/kg/injection, schedule: Q01DX009 (ip), vehicle: other) was 99 % of control.
For `Cc1cc(=O)c2ccc(Br)cc2[nH]1`, the T/C (dose: 50.0 mg/kg/injection, schedule: Q01DX005 (ip), vehicle: saline with Tween-80) was 100 % of control, the T/C (dose: 100.0 mg/kg/injection, schedule: Q01DX005 (ip), vehicle: saline with Tween-80) was 97 % of control and the T/C (dose: 200.0 mg/kg/injection, schedule: Q01DX005 (ip), vehicle: saline with Tween-80) was 100 % of control.
For `CCOC(=O)C1=CNc2c(C#N)cnn2C1(C(=O)OCC)c1cn(C)c2ccccc12` (stereo unspecified), the T/C (dose: 6.25 mg/kg/injection, schedule: Q01DX005 (ip), vehicle: saline with Tween-80) was 99 % of control, the T/C (dose: 12.5 mg/kg/injection, schedule: Q01DX005 (ip), vehicle: saline with Tween-80) was 95 % of control and the T/C (dose: 25.0 mg/kg/injection, schedule: Q01DX005 (ip), vehicle: saline with Tween-80) was 87 % of control.
In the case of `O=C(N/N=C/c1ccccc1O)C(=O)Nc1ccc(F)cc1`, the T/C [1] is reported as 94 % of control, the T/C [2] is reported as 92 % of control and the T/C [3] is reported as 87 % of control.
For `O=[N+]([O-])c1ccc(-c2csc(=[N+]3CCCCC3)s2)cc1`, the T/C (dose: 6.25 mg/kg/injection, schedule: Q01DX009 (ip), vehicle: water) was 106 % of control and 114 % of control and the T/C (dose: 12.5 mg/kg/injection, schedule: Q01DX009 (ip), vehicle: water) was 114 % of control.
`Cn1ccn2cnnc2c1=O` was tested, and the T/C (dose: 100.0 mg/kg/injection, schedule: Q01DX001 (ip), vehicle: saline with Tween-80) was 100 % of control, the T/C (dose: 200.0 mg/kg/injection, schedule: Q01DX001 (ip), vehicle: saline with Tween-80) was 106 % of control and the T/C (dose: 400.0 mg/kg/injection, schedule: Q01DX001 (ip), vehicle: saline with Tween-80) was 99 % of control.
With `Nc1nc(-c2cc3cc(Cl)ccc3o2)cs1` the T/C [4] was 101 % of control, the T/C [5] was 101 % of control and the T/C [6] was 100 % of control.
In the case of `C=C(C)[C@H]1C[C@@H](O)[C@H]2O[C@@]2(C)C1`, the T/C [9] is reported as 91 % of control, the T/C [10] is reported as 90 % of control and the T/C [11] is reported as 102 % of control.
In the case of `CC(C)N1C(C)c2ccccc2OS1=O` (stereo unspecified), the T/C [4] is reported as 99 % of control and the T/C [5] is reported as 108 % of control.
`NC(=O)NC1CCCCCCC1` was tested, and the T/C (dose: 100.0 mg/kg/injection, schedule: Q04DX003 (ip), vehicle: saline with Tween-80) was 100 % of control, the T/C (dose: 200.0 mg/kg/injection, schedule: Q04DX003 (ip), vehicle: saline with Tween-80) was 109 % of control and the T/C (dose: 400.0 mg/kg/injection, schedule: Q04DX003 (ip), vehicle: saline with Tween-80) was 95 % of control.
In the case of `CC1(C)C=CC2=C(O1)C(=O)c1ccccc1C2=O`, the T/C (dose: 25.0 mg/kg/injection, schedule: Q01DX009 (ip), vehicle: water) is reported as 101 % of control, the T/C (dose: 50.0 mg/kg/injection, schedule: Q01DX009 (ip), vehicle: water) is reported as 107 % of control and the T/C (dose: 100.0 mg/kg/injection, schedule: Q01DX009 (ip), vehicle: water) is reported as 115 % of control. The T/C (dose: 200.0 mg/kg/injection, schedule: Q01DX009 (ip), vehicle: water) was 110 % of control.
With `CCOC(=O)CCC#N` the T/C [9] was 99 % of control and 105 % of control, the T/C [10] was 107 % of control and 108 % of control and the T/C [11] was 105 % of control and 106 % of control. For the same molecule, the T/C (dose: 400.0 mg/kg/injection, schedule: Q01DX009 (ip), vehicle: saline) was 100 % of control.
`CCCCCCCCCCNCCSSCCNC(C)=O` was tested, and the T/C (dose: 1.56 mg/kg/injection, schedule: Q01DX005 (ip), vehicle: Klucel (hydroxypropylcellulose) (HPC)) was 103 % of control, the T/C (dose: 3.12 mg/kg/injection, schedule: Q01DX005 (ip), vehicle: Klucel (hydroxypropylcellulose) (HPC)) was 100 % of control and the T/C (dose: 6.25 mg/kg/injection, schedule: Q01DX005 (ip), vehicle: Klucel (hydroxypropylcellulose) (HPC)) was 105 % of control. The T/C (dose: 12.5 mg/kg/injection, schedule: Q01DX005 (ip), vehicle: Klucel (hydroxypropylcellulose) (HPC)) was 104 % of control, the T/C (dose: 25.0 mg/kg/injection, schedule: Q01DX005 (ip), vehicle: Klucel (hydroxypropylcellulose) (HPC)) was 102 % of control and the T/C [1] was 98 % of control and 103 % of control.
In the case of `CC(=O)OCC1OC(S[As](C2CCCCC2)C2CCCCC2)C(OC(C)=O)C(OC(C)=O)C1OC(C)=O` (stereo unspecified), the T/C (dose: 25.0 mg/kg/injection, schedule: Q04DX003 (ip), vehicle: Klucel (hydroxypropylcellulose) (HPC)) is reported as 109 % of control and the T/C (dose: 50.0 mg/kg/injection, schedule: Q04DX003 (ip), vehicle: Klucel (hydroxypropylcellulose) (HPC)) is reported as 116 % of control.
`CCN(CC)C(=O)c1ccc(C)c2c1Nc1c(c(C)c3oc(=O)c(C)nc3c1C(=O)N(CC)CC)O2` was tested, and the T/C (dose: 7.5 mg/kg/injection, schedule: Q01DX005 (ip), vehicle: Klucel (hydroxypropylcellulose) (HPC)) was 97 % of control, the T/C (dose: 15.0 mg/kg/injection, schedule: Q01DX005 (ip), vehicle: Klucel (hydroxypropylcellulose) (HPC)) was 90 % of control and the T/C (dose: 120.0 mg/kg/injection, schedule: Q01DX005 (ip), vehicle: Klucel (hydroxypropylcellulose) (HPC)) was 88 % of control. For the same molecule, the T/C (dose: 240.0 mg/kg/injection, schedule: Q01DX005 (ip), vehicle: Klucel (hydroxypropylcellulose) (HPC)) was 92 % of control.
`COc1ccc(CN(CCc2ccc(O)cc2)C(=O)C(F)(F)F)cc1O` was tested, and the T/C (dose: 6.25 mg/kg/injection, schedule: Q01DX009 (ip), vehicle: saline with Tween-80) was 99 % of control, the T/C (dose: 12.5 mg/kg/injection, schedule: Q01DX009 (ip), vehicle: saline with Tween-80) was 110 % of control and the T/C [12] was 107 % of control. For the same molecule, the T/C [13] was 100 % of control.
`COc1cc(NC(=O)CN(CCCl)CCCl)cc(OC)c1OC` was tested, and the T/C [12] was 157 % of control, the T/C [13] was 213 % of control and the T/C (dose: 100.0 mg/kg/injection, schedule: Q01DX009 (ip), vehicle: saline sonified) was 163 % of control. The T/C (dose: 100.0 mg/kg/injection, schedule: Q01DX009 (ip), vehicle: saline with Tween-80) was 120 % of control, the T/C (dose: 132.0 mg/kg/injection, schedule: Q04DX003 (ip), vehicle: saline sonified) was 100 % of control and the T/C (dose: 200.0 mg/kg/injection, schedule: Q01DX009 (ip), vehicle: saline sonified) was 159 % of control. The T/C (dose: 200.0 mg/kg/injection, schedule: Q04DX003 (ip), vehicle: saline sonified) was 110 % of control.
